Data on 7 compounds can be found in patent publication US7666670B2, “Animal model for the fast identification of pharmaceutical active compounds in vivo” (Janssen Pharmaceutica N.V., priority 2003, dated 2010).

Several values for one entry are separate records, joined by “and”; a condition that tells them apart may be missing. Equal values may be shown once. *1 amine or outer side, *2 acyl side, *3 side chain or, on linkers, in order; H or OH if unused. Where a SMILES comes first, the peptide text is derived from it. Bridges are numbered along the chain shown (N, C = ends). Roman numbers before positions name the chains, in order. [ ]: non-standard residue; d: D form. Actinocin(9to1) = Cc1c2oc3c(C)ccc(C(=O)[*:1])c3nc-2c(C(=O)[*:2])c(N)c1=O; NMeV = CN[C@H](C(=O)O)C(C)C; Sar = CNCC(=O)O

Data set [1] has as its system p21 1300 bp promoter fragment. As to the kind of experiment: Induction of p21 1300 bp promoter fragment (ZsGreen fluorescence) in pGL3-basic-ZsGreen-1300 transfected A2780 clones. Type of data set: cell-based, human. As to conditions: for Activation of the 1300 bp fragment of the p21 promoter by DNA damaging agents: dose response, clones 1 and 5 (FIG. 1); for Activation of the 1300 bp fragment of the p21 promoter by DNA damaging agents / Fold induction (fluorescence after induction divided by fluorescence of DMSO treated cells): 24 h; for Fold induction (fluorescence after induction divided by fluorescence of DMSO treated cells): Fluoroskan; for Fold induction: first screen of 80 clones, the two clones measurable with Fluoroskan. How it is done: A2780 cells were plated into a 6-well plate at a density of 2×10^5 cells, incubated for 24 hours, and transfected with 2 ug of pGL3-basic-ZsGreen-1300 and 0.2 ug of pSV2neo vector by using Lipofectamine 2000 (Invitrogen, Brussels, Belgium) as described by manufacturer. The transfected cells were selected for 10 days with G418 (Gibco-BRL, Gaithersburg, Md.) and single cell suspensions were grown. After three weeks, 80 single clones were obtained.
The A2780 transfected pool and the selected 80 clones were expanded and seeded at 10000 cells per well into 96-well plates. 24 hours after seeding, the cells were treated for an additional 24 hours with targeted compounds (affecting sp1 sites in the proximal p21 promoter region) or DNA damaging agents (affecting p53 responsive elements). Subsequently, cells were fixed with 4% PFA for 30′ and counterstained with Hoechst dye. The p21 promoter activation leading to ZsGreen production and thus fluorescence, was monitored by the Ascent Fluoroskan (Thermo Labsystems, Brussels, Belgium) and by fluorescence microscope (Zeiss).

For another data set, the system named is tumor. As to conditions: PK/PD studies; cited from earlier work.
For data set [2], the system named is pGL3-basic-ZsGreen-1300 transfected A2780 xenograft. As to the kind of experiment: In vivo xenograft fluorescence, Automated Whole Body Imaging System. Also on record: species or system nude mice. How it is done: The selected clone was injected subcutaneous (10^7 cells/200 μl) into the flank of nude mice and a calliper measurable tumor was obtained after 12 days. From day 12 on, animals were orally dosed daily during 6 days with solvent, 20 mpk Mitsui (a.k.a. MS-275—Shering—Registry Number 209783-80-2) or 40 mpk compound X (10, 10 and 4 animals respectively). Tumors were evaluated for fluorescence by the in-house developed Automated Whole Body Imaging System (Fluorescent stereomicroscope type Olympus® SZX12 equipped with a GFP filter and coupled to a CCD camera type JAI® CV-M90 controlled by a software package based on the IMAQ Vision Software from National Instruments®).

For a further data set, the system named is p53RE_tk in A2780 cells. In words: Induction of p53RE_tk activity (ZsGreen fluorescence) in transfected A2780 clones. The class given is cell-based, human. Particulars: 24 h, Fluoroskan; for Fold induction (fluorescence after induction divided by fluorescence of DMSO treated cells): A2780 clone 36, 10 ng/ml. On the procedure: (§1) A2780 cells and HCT116 cells were plated into a 6-well plate at a density of 4×10^5 cells, incubated for 24 hours, and transfected with 2 ug of p53RE_TK/pGL3-basic-ZsGreen and 0.2 ug of pMC1-neo-Poly A vector by using Lipofectamine and Plus Reagent (Invitrogen, Brussels, Belgium) as described by manufacturer. The transfected cells were selected for 16 days with G418 (Gibco-BRL, Gaithersburg, Md.) and single cell suspensions were grown. After three weeks, 60 single clones were obtained from the transfected HCT116 cells and 40 single clones were obtained from the transfected A2780 cells.
(§2) The A2780 and the HCT116 transfected pool and the selected clones were expanded and seeded at 20000 cells per well into 96-well plates. 24 hours after seeding, the cells were treated for an additional 24 hours with DNA damaging agents (affecting p53 responsive elements). The p53RE_tk activation leading to ZsGreen production and thus fluorescence, was monitored by the Ascent Fluoroskan (Thermo Labsystems, Brussels, Belgium) and by fluorescence microscope (Zeiss).

The test system of the next data set is p53RE_tk in HCT116 cells. As to the kind of experiment: Induction of p53RE_tk activity (ZsGreen fluorescence) in transfected HCT116 clones. As to conditions: 24 h. Type of data set: cell-based. How it is done: as §1, §2
[3] abbreviates: 20 mpk orally daily for 6 days from day 12, clone 1 and 5 xenograft, nude mice.

`CC[C@@]1(O)C(=O)OCc2c1cc1n(c2=O)Cc2cc3ccccc3nc2-1` [Camptothecin]: the “Activation of the 1300 bp fragment of the p21 promoter by DNA damaging agents” value (shortened to “Activation”) was “not able to activate” in data set [1] and “non-responsivness” in data set [1] (listed as Campthotecin).
For the compound `COc1cccc2c1C(=O)c1c(O)c3c(c(O)c1C2=O)C[C@@](O)(C(=O)CO)C[C@@H]3O[C@H]1C[C@H](N)[C@H](O)[C@H](C)O1` [Doxorubicin], the “Activation” value is recorded as “not able to activate” in data set [1] and “non-responsivness” in data set [1] (listed as doxorubicin).
Regarding `Nc1ccccc1NC(=O)c1ccc(CNC(=O)OCc2cccnc2)cc1` [Mitsui], in the data set on tumor, the “Compound reaches the tumor” value is listed as “can reach the tumor” and the “Concentration reached in the tumor” value is given as “high enough to stop the tumor from growing”. Also, the “Fold induction (fluorescence after induction divided by fluorescence of DMSO treated cells)” value in data set [1] (clone 1, 10^−6M) was 2 fold and 1.8 fold. Moreover, the Fold induction in data set [1] (10^−6, 24 h) is reported as 1.2-1.5 fold. In addition, the “ZsGreen production in pGL3-basic-ZsGreen-1300 transfected A2780 cells in vitro” value (from here on “ZsGreen production”) in data set [1] is on record as “induce ZsGreen production”. In data set [2] (setting [3]), the “Time after administration of the first dose at which induction of ZsGreen was very clear” value amounted to 3 days and the “Time after starting the treatment at which ZsGreen induction reached a plateau” value is 5 days. In data set [2] (20 mpk, clone 2 and 3 xenograft, nude mice), the “Basal ZsGreen expression and induction, detection by Automated Whole Body Imaging System” value is on record as “too low”. In addition, the “Induction of fluorescence in the xenograft” value in data set [2] (after 4 days of treatment) is given as “induces fluorescence”.
Regarding `O=C(CCCCCCC(=O)Nc1ccccc1)NO` [SAHA, suberoylanilide hydroxamic acid], in data set [1], the “ZsGreen production” value is reported as “induce ZsGreen production”.
On to `CC(/C=C/C(=O)NO)=C\[C@@H](C)C(=O)c1ccc(N(C)C)cc1` [TSA, trichostatin A], for which, in data set [1] (clone 1, 10^−7M), the “Fold induction (fluorescence after induction divided by fluorescence of DMSO treated cells)” value is recorded as 5 fold. This compound also showed a Fold induction in data set [1] (10^−7, 24 h) of 5 fold. The “ZsGreen production” value in data set [1] is “induce ZsGreen production”.
As to `Cc1c2oc3c(C)ccc(C(=O)N[C@@H]4C(=O)N[C@H](C(C)C)C(=O)N5CCC[C@H]5C(=O)N(C)CC(=O)N(C)[C@@H](C(C)C)C(=O)O[C@@H]4C)c3nc-2c(C(=O)N[C@@H]2C(=O)N[C@H](C(C)C)C(=O)N3CCC[C@H]3C(=O)N(C)CC(=O)N(C)[C@@H](C(C)C)C(=O)O[C@@H]2C)c(N)c1=O` [actinomycin D] (I: T[dV]P[Sar][NMeV] / II: T[dV]P[Sar][NMeV]; ester I:1-I:C, II:1-II:C; linker I:N-II:N via Actinocin(9to1)), the “Fold induction (fluorescence after induction divided by fluorescence of DMSO treated cells)” value is 2 fold with p53RE_tk in A2780 cells and “strong induction factor” with p53RE_tk in A2780 cells (listed as actinomycinD). The Induction of fluorescence result was “at least a two fold induction” with p53RE_tk in A2780 cells (the 2 responding A2780 clones, 10 ng/ml); “strong induction factor” with p53RE_tk in HCT116 cells (HCT116 clones 5 and 36, 10 ng/ml); “at least a two fold induction” in the data set with p53RE_tk in HCT116 cells (the 6 responding HCT116 clones, 10 ng/ml, Fluoroskan).
With Bleomycin, the “Activation” value is “not able to activate” in data set [1] and “non-responsivness” in data set [1] (listed as bleomycin).
